Source: ChEMBL document CHEMBL3797052 (Eur J Med Chem, 2016)

System: not listed separately
Assay: Antiproliferative activity against human BT549 cells assessed as cell growth at 10^-8 M after 48 hrs by sulforhodamine B assay
Type: functional
Conditions: BT-549, 48 h, read-out: Activity

SMILES	growth at 0.01 µM
CNC(=O)c1cc(Oc2ccc3nc(NC(=O)c4cc(C(F)(F)F)cc(C(F)(F)F)c4)sc3c2)ccn1	97%

System: not listed separately
Assay: Antiproliferative activity against human RPMI8226 cells assessed as cell growth at 10^-7 M after 48 hrs by sulforhodamine B assay
Type: functional
Conditions: RPMI-8226, 48 h, read-out: Activity

SMILES	growth at 0.1 µM
CNC(=O)c1cc(Oc2ccc3nc(NC(=O)c4cc(C(F)(F)F)cc(C(F)(F)F)c4)sc3c2)ccn1	98%

System: not listed separately
Assay: Antiproliferative activity against human COLO205 cells assessed as cell growth at 10^-7 M after 48 hrs by sulforhodamine B assay
Type: functional
Conditions: COLO 205, 48 h, read-out: Activity

SMILES	growth at 0.1 µM
CNC(=O)c1cc(Oc2ccc3nc(NC(=O)c4cc(C(F)(F)F)cc(C(F)(F)F)c4)sc3c2)ccn1	91%

System: not listed separately
Assay: Antiproliferative activity against human SF268 cells assessed as cell growth at 10^-7 M after 48 hrs by sulforhodamine B assay
Type: functional
Conditions: SF-268, 48 h, read-out: Activity

SMILES	growth at 0.1 µM
CNC(=O)c1cc(Oc2ccc3nc(NC(=O)c4cc(C(F)(F)F)cc(C(F)(F)F)c4)sc3c2)ccn1	97%

System: not listed separately
Assay: Antiproliferative activity against human SF295 cells assessed as cell growth at 10^-7 M after 48 hrs by sulforhodamine B assay
Type: functional
Conditions: SF-295, 48 h, read-out: Activity

SMILES	growth at 0.1 µM
CNC(=O)c1cc(Oc2ccc3nc(NC(=O)c4cc(C(F)(F)F)cc(C(F)(F)F)c4)sc3c2)ccn1	89%

System: not listed separately
Assay: Antiproliferative activity against human SNB19 cells assessed as cell growth at 10^-7 M after 48 hrs by sulforhodamine B assay
Type: functional
Conditions: SNB-19, 48 h, read-out: Activity

SMILES	growth at 0.1 µM
CNC(=O)c1cc(Oc2ccc3nc(NC(=O)c4cc(C(F)(F)F)cc(C(F)(F)F)c4)sc3c2)ccn1	103%

System: not listed separately
Assay: Antiproliferative activity against human SNB75 cells assessed as cell growth at 10^-7 M after 48 hrs by sulforhodamine B assay
Type: functional
Conditions: SNB-75, 48 h, read-out: Activity

SMILES	growth at 0.1 µM
CNC(=O)c1cc(Oc2ccc3nc(NC(=O)c4cc(C(F)(F)F)cc(C(F)(F)F)c4)sc3c2)ccn1	77%

System: not listed separately
Assay: Antiproliferative activity against human BT549 cells assessed as cell growth at 10^-4 M after 48 hrs by sulforhodamine B assay
Type: functional
Conditions: BT-549, 48 h, read-out: Activity

SMILES	growth at 100 µM
CNC(=O)c1cc(Oc2ccc3nc(NC(=O)c4cc(C(F)(F)F)cc(C(F)(F)F)c4)sc3c2)ccn1	-48%

System: not listed separately
Assay: Antiproliferative activity against human UACC62 cells assessed as growth inhibition after 48 hrs by sulforhodamine B assay
Type: functional
Conditions: UACC-62, 48 h

SMILES	GI50	TGI
CNC(=O)c1cc(Oc2ccc3nc(NC(=O)c4cc(C(F)(F)F)cc(C(F)(F)F)c4)sc3c2)ccn1	2.71 µM	12.1 µM

Same assay, conditions: UACC-62, 48 h, read-out: LC50 (the source's name)

SMILES	CC50
CNC(=O)c1cc(Oc2ccc3nc(NC(=O)c4cc(C(F)(F)F)cc(C(F)(F)F)c4)sc3c2)ccn1	80.5 µM

System: SK-MEL-5
Assay: Antiproliferative activity against human SK-MEL-5 cells assessed as growth inhibition after 48 hrs by sulforhodamine B assay
Type: functional
Conditions: SK-MEL-5, 48 h

SMILES	GI50	TGI
CNC(=O)c1cc(Oc2ccc3nc(NC(=O)c4cc(C(F)(F)F)cc(C(F)(F)F)c4)sc3c2)ccn1	1.68 µM	3.63 µM

Same assay, conditions: SK-MEL-5, 48 h, read-out: LC50 (the source's name)

SMILES	CC50
CNC(=O)c1cc(Oc2ccc3nc(NC(=O)c4cc(C(F)(F)F)cc(C(F)(F)F)c4)sc3c2)ccn1	7.87 µM

System: M14
Assay: Antiproliferative activity against human M14 cells assessed as growth inhibition after 48 hrs by sulforhodamine B assay
Type: functional
Conditions: M14, 48 h

SMILES	GI50	TGI
CNC(=O)c1cc(Oc2ccc3nc(NC(=O)c4cc(C(F)(F)F)cc(C(F)(F)F)c4)sc3c2)ccn1	3.61 µM	19.5 µM

Same assay, conditions: M14, 48 h, read-out: LC50 (the source's name)

SMILES	CC50
CNC(=O)c1cc(Oc2ccc3nc(NC(=O)c4cc(C(F)(F)F)cc(C(F)(F)F)c4)sc3c2)ccn1	> 100 µM

System: not listed separately
Assay: Antiproliferative activity against human LOXIMVI cells assessed as cell growth at 10^-7 M after 48 hrs by sulforhodamine B assay
Type: functional
Conditions: LOX IMVI, read-out: Activity

SMILES	growth at 0.1 µM
CNC(=O)c1cc(Oc2ccc3nc(NC(=O)c4cc(C(F)(F)F)cc(C(F)(F)F)c4)sc3c2)ccn1	96%

System: 786-0
Assay: Antiproliferative activity against human 786-0 cells assessed as cell growth at 10^-7 M after 48 hrs by sulforhodamine B assay
Type: functional
Conditions: 786-0, 48 h, read-out: Activity

SMILES	growth at 0.1 µM
CNC(=O)c1cc(Oc2ccc3nc(NC(=O)c4cc(C(F)(F)F)cc(C(F)(F)F)c4)sc3c2)ccn1	90%

System: not listed separately
Assay: Antiproliferative activity against human TK10 cells assessed as cell growth at 10^-7 M after 48 hrs by sulforhodamine B assay
Type: functional
Conditions: TK-10, 48 h, read-out: Activity

SMILES	growth at 0.1 µM
CNC(=O)c1cc(Oc2ccc3nc(NC(=O)c4cc(C(F)(F)F)cc(C(F)(F)F)c4)sc3c2)ccn1	94%

System: not listed separately
Assay: Antiproliferative activity against human HCT116 cells assessed as growth inhibition after 48 hrs by sulforhodamine B assay
Type: functional
Conditions: HCT-116, 48 h

SMILES	GI50	LC50 (concentration killing 50% of the starting cells)	TGI
CNC(=O)c1cc(Oc2ccc3nc(NC(=O)c4cc(C(F)(F)F)cc(C(F)(F)F)c4)sc3c2)ccn1	3.41 µM	42.4 µM	11.9 µM

System: NCI-H322M
Assay: Antiproliferative activity against human NCI-H322M cells assessed as growth inhibition after 48 hrs by sulforhodamine B assay
Type: functional
Conditions: not given

SMILES	GI50
CNC(=O)c1cc(Oc2ccc3nc(NC(=O)c4cc(C(F)(F)F)cc(C(F)(F)F)c4)sc3c2)ccn1	3.7 µM
